Measured values from article PMC7411652 (Sensors (Basel, Switzerland), 2020).
Where two headings read alike, the source gives them in different places.

Legend:
CYP1A1 Supersomes = details: read-out: IC50 for inhibition of CYP1A1 Supersomes; insect cell-derived microsomes, Corning-Gentest; cited from earlier work
CYP1A1 enzyme = target: T1, CYP1A1 enzyme (Homo sapiens, UniProt P04798); test: Live-cell IC50 determination, CYP1A1 expressed in yeast cells, 7-ethoxyresorufin (7-ER) substrate; format: cell-based; details: 1 × 10^7 cells, 10 min incubation
T1 construct: expressed in transfected cells; host or cells: Saccharomyces cerevisiae W303-1A derived strains yRD+ (+CPR) and yRD-::Bax (-CPR)
T1 sequence (P04798 1-512): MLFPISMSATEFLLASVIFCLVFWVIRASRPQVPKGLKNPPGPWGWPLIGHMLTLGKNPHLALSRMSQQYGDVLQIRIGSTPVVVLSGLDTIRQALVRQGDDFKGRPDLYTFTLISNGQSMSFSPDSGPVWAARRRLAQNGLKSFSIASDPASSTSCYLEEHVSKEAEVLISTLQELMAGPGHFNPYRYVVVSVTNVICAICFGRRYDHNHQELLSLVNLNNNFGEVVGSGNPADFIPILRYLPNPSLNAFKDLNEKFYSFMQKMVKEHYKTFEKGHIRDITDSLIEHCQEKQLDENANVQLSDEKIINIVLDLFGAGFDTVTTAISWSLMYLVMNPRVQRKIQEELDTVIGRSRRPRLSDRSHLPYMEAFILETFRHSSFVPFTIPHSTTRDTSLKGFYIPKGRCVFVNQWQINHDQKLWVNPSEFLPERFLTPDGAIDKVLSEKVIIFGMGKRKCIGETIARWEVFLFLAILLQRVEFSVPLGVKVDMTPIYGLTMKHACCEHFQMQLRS
Method: The IC50 values were calculated using the GraphPad Prism software.

CYP1A2 Supersomes = tested on: CYP1A2 Supersomes; design: method as in PMID 19359406; details: insect cell-derived microsomes, Corning-Gentest, 10 min incubation with microsomal enzyme; read-out: IC50 for inhibition of CYP1A2 Supersomes; cited from earlier work

Row | IC50 (CYP1A1 enzyme; live yeast strain yRD+ (+CPR), read-out: IC50 for inhibition of CYP1A1 in yRD+ cells) | IC50 (CYP1A1 enzyme; live yeast strain yRD−:: Bax (–CPR), read-out: IC50 for inhibition of CYP1A1 in yRD- cells) | Compound | IC50 (CYP1A1 Supersomes) | IC50 (CYP1A2 Supersomes)
1 | 20.8 nM | 21.3 nM | O=c1cc(-c2ccccc2)oc2c1ccc1ccccc12 [ANF, Alpha-naphthoflavone] | 18 nM | 
2 |  |  | Cc1nc2c([nH]1)c(=O)n(C)c(=O)n2Cc1ccco1 [Furafylline] |  | 6100 nM
